Patent US9469650B2, “Melampomagnolide B derivatives” (BOARD OF TRUSTEES OF THE UNIVERSITY OF ARKANSAS, priority 2013, dated 2016)

Legend:
ACHN = assay: panel of 60 human tumor cell lines, growth inhibition (Renal Cancer); settings: Homo sapiens; for CC50: read-out: LC50; for IC (TGI): read-out: TGI
BT-549 = assay: panel of 60 human tumor cell lines, growth inhibition (Breast Cancer); settings: Homo sapiens; for GI50: BT-549; for CC50: BT-549, read-out: LC50; for IC (TGI): BT-549, read-out: TGI
SR = assay: panel of 60 human tumor cell lines, growth inhibition (Leukemia); settings: Homo sapiens; for CC50: read-out: LC50; for IC (TGI): read-out: TGI
UACC-62 = assay: panel of 60 human tumor cell lines, growth inhibition (Melanoma); settings: Homo sapiens; for GI50: UACC-62; for CC50: UACC-62, read-out: LC50; for IC (TGI): UACC-62, read-out: TGI
SNB-75 = assay: panel of 60 human tumor cell lines, growth inhibition (CNS Cancer); settings: Homo sapiens; for GI50: SNB-75; for CC50: SNB-75, read-out: LC50; for IC (TGI): SNB-75, read-out: TGI
SF-295 = assay: as above; settings: Homo sapiens; for GI50: SF-295; for CC50: SF-295, read-out: LC50; for IC (TGI): SF-295, read-out: TGI
MDA-MB-435 = assay: panel of 60 human tumor cell lines, growth inhibition (Melanoma); settings: Homo sapiens; for GI50: MDA-MB-435; for CC50: MDA-MB-435, read-out: LC50; for IC (TGI): MDA-MB-435, read-out: TGI
SF-539 = assay: panel of 60 human tumor cell lines, growth inhibition (CNS Cancer); settings: Homo sapiens; for GI50: SF-539; for CC50: SF-539, read-out: LC50; for IC (TGI): SF-539, read-out: TGI
RXF 393 = assay: panel of 60 human tumor cell lines, growth inhibition (Renal Cancer); settings: Homo sapiens; for GI50: RXF 393, RXF 393, NCI five dose; for CC50: RXF 393, read-out: LC50; for IC (TGI): RXF 393, read-out: TGI
COLO 205 = assay: panel of 60 human tumor cell lines, growth inhibition (Colon Cancer); settings: Homo sapiens; for GI50: COLO 205; for CC50: COLO 205, read-out: LC50; for IC (TGI): COLO 205, read-out: TGI
NCI-H322M = assay: panel of 60 human tumor cell lines, growth inhibition (Non-Small Cell Lung Cancer); settings: Homo sapiens; for CC50: read-out: LC50; for IC (TGI): read-out: TGI
UO-31 = assay: panel of 60 human tumor cell lines, growth inhibition (Renal Cancer); settings: Homo sapiens; for GI50: UO-31; for CC50: UO-31, read-out: LC50; for IC (TGI): UO-31, read-out: TGI
SK-MEL-28 = assay: panel of 60 human tumor cell lines, growth inhibition (Melanoma); settings: Homo sapiens; for GI50: SK-MEL-28; for CC50: SK-MEL-28, read-out: LC50; for IC (TGI): SK-MEL-28, read-out: TGI
HCC-2998 = assay: panel of 60 human tumor cell lines, growth inhibition (Colon Cancer); settings: Homo sapiens; for GI50: HCC 2998; for CC50: HCC 2998, read-out: LC50; for IC (TGI): HCC 2998, read-out: TGI
NCI/ADR-RES = assay: panel of 60 human tumor cell lines, growth inhibition (Ovarian Cancer); settings: Homo sapiens; for CC50: read-out: LC50; for IC (TGI): read-out: TGI
HCT-116 = assay: panel of 60 human tumor cell lines, growth inhibition (Colon Cancer); settings: Homo sapiens; for GI50: HCT-116, HCT-116, NCI five dose; for CC50: HCT-116, read-out: LC50; for IC (TGI): HCT-116, read-out: TGI
SNB-19 = assay: panel of 60 human tumor cell lines, growth inhibition (CNS Cancer); settings: Homo sapiens; for GI50: SNB-19; for CC50: SNB-19, read-out: LC50; for IC (TGI): SNB-19, read-out: TGI
SN12C = assay: panel of 60 human tumor cell lines, growth inhibition (Renal Cancer); settings: Homo sapiens; for CC50: read-out: LC50; for IC (TGI): read-out: TGI

Structure (SMILES): C=C1C(=O)O[C@H]2[C@H]1CC/C(COC(=O)NCCCCCCO)=C\CC[C@@]1(C)O[C@@H]21 [JVM 2-31]
- GI50 (ACHN): 3.21 µM
- CC50 (ACHN): 49.6 µM
- IC (TGI) (ACHN): 13.6 µM
- GI50 (BT-549): 2.86 µM
- CC50 (BT-549): 43.4 µM
- IC (TGI) (BT-549): 17.4 µM
- GI50 (SR): 2.35 µM
- CC50 (SR): > 100 µM
- IC (TGI) (SR): 13.3 µM
- GI50 (UACC-62): 6.78 µM
- CC50 (UACC-62): 53.4 µM
- IC (TGI) (UACC-62): 21.4 µM
- GI50 (SNB-75): 5.84 µM
- CC50 (SNB-75): 45.6 µM
- IC (TGI) (SNB-75): 20.1 µM
- GI50 (SF-295): 14.8 µM
- CC50 (SF-295): 85.8 µM
- IC (TGI) (SF-295): 35.7 µM
- GI50 (MDA-MB-435): 4.45 µM
- CC50 (MDA-MB-435): 70.9 µM
- IC (TGI) (MDA-MB-435): 20.2 µM
- GI50 (SF-539): 2.42 µM
- CC50 (SF-539): 34.8 µM
- IC (TGI) (SF-539): 8.33 µM
- GI50 (RXF 393): 1.24 µM
- CC50 (RXF 393): 40.2 µM
- IC (TGI) (RXF 393): 9.75 µM
- GI50 (COLO 205): 2.56 µM
- CC50 (COLO 205): 32 µM
- IC (TGI) (COLO 205): 6.39 µM
- GI50 (NCI-H322M): 32.2 µM
- CC50 (NCI-H322M): > 100 µM
- IC (TGI) (NCI-H322M): 89 µM
- GI50 (UO-31): 5.91 µM
- CC50 (UO-31): 62.6 µM
- IC (TGI) (UO-31): 21.2 µM
- GI50 (SK-MEL-28): 5.21 µM
- CC50 (SK-MEL-28): 43.7 µM
- IC (TGI) (SK-MEL-28): 18.1 µM
- GI50 (HCC-2998): 15.6 µM
- CC50 (HCC-2998): 61.9 µM
- IC (TGI) (HCC-2998): 31.1 µM
- GI50 (NCI/ADR-RES): 28.1 µM
- CC50 (NCI/ADR-RES): > 100 µM
- IC (TGI) (NCI/ADR-RES): > 100 µM
- GI50 (HCT-116): 2.78 µM
- CC50 (HCT-116): 34 µM
- IC (TGI) (HCT-116): 11 µM
- GI50 (SNB-19): 16.7 µM
- CC50 (SNB-19): > 100 µM
- IC (TGI) (SNB-19): 51.3 µM
- GI50 (SN12C): 10.4 µM
- CC50 (SN12C): 69.7 µM
- IC (TGI) (SN12C): 27 µM

Structure (SMILES): C=C1C(=O)O[C@H]2[C@H]1CC/C(COC(=O)OCCN(C)C)=C\CC[C@@]1(C)O[C@@H]21 [JVM 2-35]
- GI50 (ACHN): 3.26 µM
- CC50 (ACHN): 40.9 µM
- IC (TGI) (ACHN): 13.4 µM
- GI50 (BT-549): 5.82 µM
- CC50 (BT-549): 44.8 µM
- IC (TGI) (BT-549): 19.5 µM
- GI50 (SR): 2.22 µM
- CC50 (SR): > 100 µM
- IC (TGI) (SR): 12.1 µM
- GI50 (UACC-62): 6.13 µM
- CC50 (UACC-62): 46.6 µM
- IC (TGI) (UACC-62): 19.9 µM
- GI50 (SNB-75): 4.96 µM
- CC50 (SNB-75): 50.7 µM
- IC (TGI) (SNB-75): 21.5 µM
- GI50 (SF-295): 24.7 µM
- CC50 (SF-295): > 100 µM
- IC (TGI) (SF-295): > 100 µM
- GI50 (MDA-MB-435): 4.03 µM
- CC50 (MDA-MB-435): 45.7 µM
- IC (TGI) (MDA-MB-435): 16.3 µM
- GI50 (SF-539): 3.86 µM
- CC50 (SF-539): 41.3 µM
- IC (TGI) (SF-539): 14.7 µM
- GI50 (RXF 393): 3.23 µM
- CC50 (RXF 393): 45.8 µM
- IC (TGI) (RXF 393): 13.7 µM
- GI50 (COLO 205): 2.19 µM
- CC50 (COLO 205): 18.6 µM
- IC (TGI) (COLO 205): 5.46 µM
- GI50 (NCI-H322M): 28.7 µM
- CC50 (NCI-H322M): > 100 µM
- IC (TGI) (NCI-H322M): > 100 µM
- GI50 (UO-31): 4.58 µM
- CC50 (UO-31): 48.3 µM
- IC (TGI) (UO-31): 18.6 µM
- GI50 (SK-MEL-28): 4.27 µM
- CC50 (SK-MEL-28): 48.3 µM
- IC (TGI) (SK-MEL-28): 17.9 µM
- GI50 (HCC-2998): 15.8 µM
- CC50 (HCC-2998): 61.9 µM
- IC (TGI) (HCC-2998): 31.3 µM
- GI50 (NCI/ADR-RES): 23.7 µM
- CC50 (NCI/ADR-RES): > 100 µM
- IC (TGI) (NCI/ADR-RES): 84.6 µM
- GI50 (HCT-116): 2.66 µM
- CC50 (HCT-116): 33.6 µM
- IC (TGI) (HCT-116): 11.3 µM
- GI50 (SNB-19): 18.6 µM
- CC50 (SNB-19): > 100 µM
- IC (TGI) (SNB-19): 62 µM
- GI50 (SN12C): 13.2 µM
- CC50 (SN12C): > 100 µM
- IC (TGI) (SN12C): 39.7 µM

Structure (SMILES): C=C1C(=O)O[C@H]2[C@H]1CC/C(COC(=O)OC)=C\CC[C@@]1(C)O[C@@H]21 [JVM 2-40]
- GI50 (ACHN): 2.4 µM
- CC50 (ACHN): 32.2 µM
- IC (TGI) (ACHN): 8.17 µM
- GI50 (BT-549): 5.74 µM
- CC50 (BT-549): 43.5 µM
- IC (TGI) (BT-549): 18.7 µM
- GI50 (SR): 2.24 µM
- CC50 (SR): > 100 µM
- IC (TGI) (SR): 12.5 µM
- GI50 (UACC-62): 5.93 µM
- CC50 (UACC-62): 46.2 µM
- IC (TGI) (UACC-62): 19.5 µM
- GI50 (SNB-75): 2.69 µM
- CC50 (SNB-75): 42.5 µM
- IC (TGI) (SNB-75): 17.9 µM
- GI50 (SF-295): 13.2 µM
- CC50 (SF-295): 59.3 µM
- IC (TGI) (SF-295): 28 µM
- GI50 (MDA-MB-435): 3.63 µM
- CC50 (MDA-MB-435): 55.4 µM
- IC (TGI) (MDA-MB-435): 16.8 µM
- GI50 (SF-539): 2.56 µM
- CC50 (SF-539): 32.7 µM
- IC (TGI) (SF-539): 8.79 µM
- GI50 (RXF 393): 1.68 µM
- CC50 (RXF 393): 31.7 µM
- IC (TGI) (RXF 393): 6.85 µM
- GI50 (COLO 205): 2.25 µM
- CC50 (COLO 205): 25 µM
- GI50 (NCI-H322M): 20.9 µM
- CC50 (NCI-H322M): > 100 µM
- IC (TGI) (NCI-H322M): 81.5 µM
- GI50 (UO-31): 3.21 µM
- CC50 (UO-31): 42.1 µM
- IC (TGI) (UO-31): 14.2 µM
- GI50 (SK-MEL-28): 3.59 µM
- CC50 (SK-MEL-28): 44.8 µM
- IC (TGI) (SK-MEL-28): 16 µM
- GI50 (HCC-2998): 13.8 µM
- CC50 (HCC-2998): 56.8 µM
- IC (TGI) (HCC-2998): 28 µM
- GI50 (NCI/ADR-RES): 17.2 µM
- CC50 (NCI/ADR-RES): > 100 µM
- IC (TGI) (NCI/ADR-RES): 49.2 µM
- GI50 (HCT-116): 2.24 µM
- CC50 (HCT-116): 33.2 µM
- IC (TGI) (HCT-116): 11 µM
- GI50 (SNB-19): 13.5 µM
- CC50 (SNB-19): 59.1 µM
- IC (TGI) (SNB-19): 28.2 µM
- GI50 (SN12C): 6.31 µM
- CC50 (SN12C): 64.4 µM
- IC (TGI) (SN12C): 22.6 µM
